In patent publication US20250002487A1, “HETEROCYCLIC COMPOUNDS AND USES THEREOF” (Ventus Therapeutics U.S., Inc., priority 2021, published 2025) one finds IC50 data, which are given here for 37 molecules.

The structures appear in SMILES notation.

Sequence of human-cGAS (h-cGAS) (Q8N884 whole entry): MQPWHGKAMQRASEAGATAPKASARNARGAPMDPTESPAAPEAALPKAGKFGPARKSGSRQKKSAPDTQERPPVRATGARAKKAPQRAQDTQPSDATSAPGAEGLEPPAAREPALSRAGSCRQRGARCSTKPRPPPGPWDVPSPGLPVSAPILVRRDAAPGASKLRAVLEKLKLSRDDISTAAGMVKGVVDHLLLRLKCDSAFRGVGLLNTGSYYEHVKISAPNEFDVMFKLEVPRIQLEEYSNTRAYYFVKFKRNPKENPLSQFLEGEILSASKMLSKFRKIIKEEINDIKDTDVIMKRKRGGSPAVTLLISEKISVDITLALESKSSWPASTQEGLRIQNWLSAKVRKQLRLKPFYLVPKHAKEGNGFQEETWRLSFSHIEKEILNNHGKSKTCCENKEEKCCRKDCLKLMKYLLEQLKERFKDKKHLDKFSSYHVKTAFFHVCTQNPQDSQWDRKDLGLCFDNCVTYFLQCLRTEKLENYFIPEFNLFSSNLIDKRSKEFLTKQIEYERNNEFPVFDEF

This assay has as its target human-cGAS (h-cGAS) (Homo sapiens, UniProt Q8N884). The experiment in a line: hcGAS Kinase-Glo Assay. The class given is biochemical. The settings on record: 40 nM h-cGAS, 100 μM ATP, 100 μM GTP, 25 nM dsDNA, 3 h incubation, read-out: hcGAS potency IC50. As for the experimental part:
In some embodiments, the compounds of the instant disclosure may be tested for their human-cGAS (h-cGAS) inhibition activity using the methodology reported in Lama et al., “Development of human cGAS-specific small molecule inhibitors for repression of double stranded DNA (dsDNA)-triggered interferon expression”, Nature Communications 10, Article number: 2261 (2019), incorporated herein by reference. hcGAS Kinase-Glo Assay Compounds were tested for their human-cGAS (h-cGAS) inhibition activity using the methodology reported in Lama et al., “Development of human cGAS-specific small molecule inhibitors for repression of double stranded DNA (dsDNA)-triggered interferon expression”, Nature Communications 10. Article number: 2261 (2019), which is herein incorporated by reference in its entirety, with slight changes to some conditions as shown in Table B. The results of the assays, expressed in IC50 ranges are reported in Table C with the following designations: A represents an IC50 value <0.1 μM; B represents an IC50 value ≥0.1 μM and <0.5 μM; C represents an IC50 value ≥0.5 μM and <1.0 μM; D represents an IC50 value ≥1.0 μM. [table]
With `Cc1c(-c2cc(C(=O)Nc3nnc(-c4ccccc4Cl)s3)on2)cnn1C` [Compound 53, N-(5-(2-chlorophenyl)-1,3,4-thiadiazol-2-yl)-3-(1,5-dimethyl-1H-pyrazol-4-yl)isoxazole-5-carboxamide], the IC50 was in the range of 100 to 500 nM.

Regarding `O=C(Nc1ccccc1)c1cc(C(=O)Nc2nnc(-c3ccccc3Cl)s2)on1` [Compound 92, N5-(5-(2-chlorophenyl)-1,3,4-thiadiazol-2-yl)-N3-phenylisoxazole-3,5-dicarboxamide], the IC50 was in the range of 100 to 500 nM.

With `CSc1nnc(NC(=O)c2cc(-c3ccnc4ccccc34)cc(=O)o2)s1` [Compound 247, N-(5-methylsulfanyl-1,3,4-thiadiazol-2-yl)-6-oxo-4-(4-quinolyl)pyran-2-carboxamide], the IC50 was in the range of 500 to 1000 nM.

Turning to `CSc1nnc(NC(=O)c2nnn(Cc3cccnc3)n2)s1` [Compound 135, N-(5-(methylthio)-1,3,4-thiadiazol-2-yl)-2-(pyridin-3-ylmethyl)-2H-tetrazole-5-carboxamide], the IC50 was at least 1000 nM.

On to `CSc1nnc(NC(=O)c2onc3ccc(Cc4c[nH]c(=O)c(O)c4)cc23)s1` [Compound 189, 5-((5-Hydroxy-6-oxo-1,6-dihydropyridin-3-yl)methyl)-N-(5-(methylthio)-1,3,4-thiadiazol-2-yl)benzo[c]isoxazole-3-carboxamide], for which the IC50 was at least 1000 nM.

Turning to `O=C(Nc1nnc(-c2c(F)cccc2F)s1)c1onc2c1ccc1cccnc12` [Compound 8, N-(5-(2,6-difluorophenyl)-1,3,4-thiadiazol-2-yl)isoxazolo[4,3-h]quinoline-3-carboxamide], the concentration for half-maximal inhibition (IC50) was in the range of 100 to 500 nM.

Consider `CSc1nnc(NC(=O)c2nnc(N3CCC[C@@H]3c3ccccc3)o2)s1` [Compound 125, (R)-N-(5-(methylthio)-1,3,4-thiadiazol-2-yl)-5-(2-phenylpyrrolidin-1-yl)-1,3,4-oxadiazole-2-carboxamide], for which the IC50 lay within 100 to 500 nM.

As to `CSc1nnc(NC(=O)c2cc(-c3cccc(Cl)c3)no2)s1` [Compound 209, 3-(3-chlorophenyl)-N-[5-(methylsulfanyl)-1,3,4-thiadiazol-2-yl]-1,2-oxazole-5-carboxamide], the half-maximal inhibitory concentration (IC50) lay in the range of 500 to 1000 nM.

`COc1cc(C(=O)Nc2nnc(-c3ccccc3Cl)s2)on1` [Compound 31, N-(5-(2-chlorophenyl)-1,3,4-thiadiazol-2-yl)-3-methoxyisoxazole-5-carboxamide]: the IC50 fell in the range of 100 to 500 nM.

Consider `CSc1nnc(NC(=O)c2noc(-c3ccccn3)n2)s1` [Compound 104, N-[5-(methylsulfanyl)-1,3,4-thiadiazol-2-yl]-5-(132yridine-2-yl)-1,2,4-oxadiazole-3-carboxamide], for which the IC50 is 500 to 1000 nM.

Consider `CSc1nnc(NC(=O)c2cc(-c3ccccc3)no2)s1` [Compound 208, N-[5-(methylsulfanyl)-1,3,4-thiadiazol-2-yl]-3-phenyl-1,2-oxazole-5-carboxamide], for which the half-maximal inhibitory concentration (IC50) is 500 to 1000 nM.

On to `CN(C)C(=O)c1cc(C(=O)Nc2nnc(-c3ccccc3Cl)s2)on1` [Compound 87, N5-(5-(2-chlorophenyl)-1,3,4-thiadiazol-2-yl)-N3,N3-dimethylisoxazole-3,5-dicarboxamide], for which the 50% inhibitory concentration (IC50) lay in the range of 500 to 1000 nM.

On to `CCSc1nnc(NC(=O)c2onc3ccccc23)s1` [Compound 70, N-(5-(ethylthio)-1,3,4-thiadiazol-2-yl)benzo[c]isoxazole-3-carboxamide], for which the IC50 is at least 1000 nM.

With `CSc1nnc(NC(=O)c2nc(Cc3ccccc3)no2)s1` [Compound 261, 3-benzyl-N-(5-methylsulfanyl-1,3,4-thiadiazol-2-yl)-1,2,4-oxadiazole-5-carboxamide], the IC50 was in the range of 500 to 1000 nM.

Take `CSc1nnc(NC(=O)c2nnc(N(C)Cc3ccccc3)o2)s1` [Compound 113, 5-[benzyl(methyl)amino]-N-[5-(methylsulfanyl)-1,3,4-thiadiazol-2-yl]-1,3,4-oxadiazole-2-carboxamide]: the IC50 fell in the range of 500 to 1000 nM.

For `CSc1nnc(NC(=O)c2onc3ccc(Cc4ccccc4)cc23)s1` [Compound 159, 5-Benzyl-N-(5-(methylthio)-1,3,4-thiadiazol-2-yl)benzo[c]isoxazole-3-carboxamide], the IC50 lay in the range of 500 to 1000 nM.

`O=C(Nc1nnc(-c2ccccc2Br)s1)c1onc2ccccc12` [Compound 144, N-[5-(2-bromophenyl)-1,3,4-thiadiazol-2-yl]-2,1-benzoxazole-3-carboxamide]: the IC50 lay within 100 to 500 nM.

Regarding `CSc1nnc(NC(=O)c2nc(-c3cnccn3)no2)s1` [Compound 71, N-(5-(methylthio)-1,3,4-thiadiazol-2-yl)-3-(pyrazin-2-yl)-1,2,4-oxadiazole-5-carboxamide], the 50% inhibitory concentration (IC50) fell in the range of 500 to 1000 nM.

For `CSc1nnc(NC(=O)c2nnc(N3CCC[C@H]3c3ccccc3)o2)s1` [Compound 126, (S)-N-(5-(methylthio)-1,3,4-thiadiazol-2-yl)-5-(2-phenylpyrrolidin-1-yl)-1,3,4-oxadiazole-2-carboxamide], the IC50 fell in the range of 500 to 1000 nM.

For the molecule `CSc1nnc(NC(=O)c2cc(-c3cccc(F)c3)no2)s1` [Compound 211, 3-(3-fluorophenyl)-N-[5-(methylsulfanyl)-1,3,4-thiadiazol-2-yl]-1,2-oxazole-5-carboxamide], the half-inhibitory concentration (IC50) fell in the range of 500 to 1000 nM.

For the molecule `CSc1nnc(NC(=O)c2cn(Cc3ccccc3)nn2)s1` [Compound 42, 1-benzyl-N-(5-(methylthio)-1,3,4-thiadiazol-2-yl)-1H-1,2,3-triazole-4-carboxamide], the IC50 is at least 1000 nM.

As to `CSc1nnc(NC(=O)c2nnc(N3CCC(C)(C)CC3)o2)s1` [Compound 120, 5-(4,4-dimethylpiperidin-1-yl)-N-(5-(methylthio)-1,3,4-thiadiazol-2-yl)-1,3,4-oxadiazole-2-carboxamide], the IC50 lay in the range of 500 to 1000 nM.

For `CSc1nnc(NC(=O)c2onc(C)c2C)s1` [Compound 242, 3,4-dimethyl-N-(5-methylsulfanyl-1,3,4-thiadiazol-2-yl)isoxazole-5-carboxamide], the 50% inhibitory concentration (IC50) lay within 500 to 1000 nM.

For the molecule `O=C(Nc1nnc(-c2cccc(Cl)c2)s1)c1onc2ccccc12` [Compound 23, N-(5-(3-chlorophenyl)-1,3,4-thiadiazol-2-yl)benzo[c]isoxazole-3-carboxamide], the IC50 was at least 1000 nM.

Consider `CSc1nnc(NC(=O)c2noc(N3CCCCC3c3ccccc3)n2)s1` (stereo not shown) [Compound 103, N-(5-(methylthio)-1,3,4-thiadiazol-2-yl)-5-(2-phenylpiperidin-1-yl)-1,2,4-oxadiazole-3-carboxamide], for which the IC50 lay in the range of 500 to 1000 nM.

With `O=C(Nc1nnc(-c2nccs2)s1)c1onc2ccccc12` [Compound 131, N-(5-(thiazol-2-yl)-1,3,4-thiadiazol-2-yl)benzo[c]isoxazole-3-carboxamide], the IC50 is 100 to 500 nM.

As for `CSc1nnc(NC(=O)c2noc3c2CCc2cccnc2-3)s1` [Compound 180, N-(5-(methylthio)-1,3,4-thiadiazol-2-yl)-4,5-dihydroisoxazolo[4,5-h]quinoline-3-carboxamide], the IC50 was 500 to 1000 nM.

On to `O=C(Nc1nnc(-c2ccccc2)s1)c1onc2ccccc12` [Compound 19, N-(5-phenyl-1,3,4-thiadiazol-2-yl)benzo[c]isoxazole-3-carboxamide], for which the IC50 was at least 1000 nM.

As to `CSc1nnc(NC(=O)c2nnc(-c3cccnc3)o2)s1` [Compound 107, N-[5-(methylsulfanyl)-1,3,4-thiadiazol-2-yl]-5-(pyridin-3-yl)-1,3,4-oxadiazole-2-carboxamide], the 50% inhibitory concentration (IC50) lay in the range of 500 to 1000 nM.

As to `O=C(Nc1nnc(-c2ccccc2Cl)s1)c1nnn[nH]1` [Compound 60, N-(5-(2-chlorophenyl)-1,3,4-thiadiazol-2-yl)-1H-tetrazole-5-carboxamide], the half-maximal inhibitory concentration (IC50) is at least 1000 nM.

Take `O=C(Nc1nnc(-c2ccccn2)s1)c1onc2c1ccc1cccnc12` [Compound 10, N-(5-(pyridin-2-yl)-1,3,4-thiadiazol-2-yl)isoxazolo[4,3-h]quinoline-3-carboxamide]: the half-maximal inhibitory concentration (IC50) lay in the range of 100 to 500 nM.

As for `O=C(Nc1nnc(-c2ccccc2Cl)s1)c1nnc(N2CCC[C@@H]2c2ccccn2)o1` [Compound 117, (R)-N-(5-(2-chlorophenyl)-1,3,4-thiadiazol-2-yl)-5-(2-(pyridin-2-yl)pyrrolidin-1-yl)-1,3,4-oxadiazole-2-carboxamide], the IC50 lay in the range of 100 to 500 nM.

In the case of `CSc1nnc(NC(=O)c2cc(-c3nccs3)no2)s1` [Compound 142, N-(5-(methylthio)-1,3,4-thiadiazol-2-yl)-3-(thiazol-2-yl)isoxazole-5-carboxamide], the half-maximal inhibitory concentration (IC50) lay within 500 to 1000 nM.

`O=C(Nc1nnc(-c2cncs2)s1)c1onc2ccccc12` [Compound 128, N-(5-(thiazol-5-yl)-1,3,4-thiadiazol-2-yl)benzo[c]isoxazole-3-carboxamide]: the IC50 is at least 1000 nM.

For `CSc1nnc(NC(=O)c2cc(Oc3ccccc3)cc(=O)o2)s1` [Compound 202, N-(5-(methylthio)-1,3,4-thiadiazol-2-yl)-2-oxo-4-phenoxy-2H-pyran-6-carboxamide], the 50% inhibitory concentration (IC50) was in the range of 500 to 1000 nM.

Take `CSc1nnc(NC(=O)c2onc3c2CCc2cnc(C)nc2-3)s1` [Compound 174, 8-Methyl-N-(5-(methylthio)-1,3,4-thiadiazol-2-yl)-4,5-dihydroisoxazolo[4,3-h]quinazoline-3-carboxamide]: the IC50 was at least 1000 nM.

In the case of `O=C(Nc1nnc(-c2ccccc2Cl)s1)c1onc2c(C(=O)O)cccc12` [Compound 178, 3-((5-(2-chlorophenyl)-1,3,4-thiadiazol-2-yl)carbamoyl)benzo[c]isoxazole-7-carboxylic acid], the half-maximal inhibitory concentration (IC50) was below 100 nM.
